Measured values published in the NIST ThermoML archive (doi:10.1021/je800110r).

Settings: Liquid, Vibrating tube method

CCCCCCCCCC [decane]
Settings | mass density [kg/m3]
333.15 K, 34442 kPa | 727.7
333.15 K, 34445 kPa | 727.8
333.16 K, 815 kPa | 699.9
333.16 K, 842 kPa | 699.9
333.16 K, 881 kPa | 700
333.16 K, 941 kPa | 700
333.16 K, 2806 kPa | 701.9
333.16 K, 2881 kPa | 702
333.16 K, 2921 kPa | 701.9
333.16 K, 3005 kPa | 702
333.16 K, 4814 kPa | 703.9
333.16 K, 4927 kPa | 703.9
333.16 K, 5007 kPa | 704
333.16 K, 5592 kPa | 704.7
333.16 K, 5608 kPa | 704.7
333.16 K, 5623 kPa | 704.7
333.16 K, 5704 kPa | 704.7
333.16 K, 5748 kPa | 704.8
333.16 K, 5756 kPa | 704.7
333.16 K, 5775 kPa | 704.7
333.16 K, 5795 kPa | 704.8
333.16 K, 5811 kPa | 704.9
333.16 K, 5830 kPa | 704.8
333.16 K, 5852 kPa | 704.8
333.16 K, 5874 kPa | 704.9
333.16 K, 5896 kPa | 704.9
333.16 K, 5917 kPa | 705
333.16 K, 5934 kPa | 704.9
333.16 K, 5956 kPa | 704.9
333.16 K, 5973 kPa | 705
333.16 K, 6001 kPa | 704.9
333.16 K, 6018 kPa | 705
333.16 K, 6045 kPa | 704.9
333.16 K, 6069 kPa | 705.1
333.16 K, 6092 kPa | 705
333.16 K, 6116 kPa | 705.1
333.16 K, 6643 kPa | 705.5
333.16 K, 6667 kPa | 705.5
333.16 K, 6688 kPa | 705.6
333.16 K, 6713 kPa | 705.6
333.16 K, 6738 kPa | 705.6
333.16 K, 6763 kPa | 705.7
333.16 K, 6796 kPa | 705.7
333.16 K, 6822 kPa | 705.8
333.16 K, 6844 kPa | 705.8
333.16 K, 7378 kPa | 706.3
333.16 K, 7414 kPa | 706.2
333.16 K, 7450 kPa | 706.4
333.16 K, 7482 kPa | 706.3
333.16 K, 7512 kPa | 706.3
333.16 K, 7550 kPa | 706.4
333.16 K, 7575 kPa | 706.4
333.16 K, 7610 kPa | 706.5
333.16 K, 7628 kPa | 706.3
333.16 K, 7651 kPa | 706.4
333.16 K, 7667 kPa | 706.6
333.16 K, 7693 kPa | 706.5
333.16 K, 7720 kPa | 706.6
333.16 K, 7744 kPa | 706.6
333.16 K, 7771 kPa | 706.7
333.16 K, 7795 kPa | 706.6
333.16 K, 7812 kPa | 706.5
333.16 K, 7830 kPa | 706.6
333.16 K, 7853 kPa | 706.7
333.16 K, 7871 kPa | 706.8
333.16 K, 7897 kPa | 706.8
333.16 K, 7918 kPa | 706.7
333.16 K, 7939 kPa | 706.8
333.16 K, 7960 kPa | 706.7
333.16 K, 7987 kPa | 706.8
333.16 K, 8006 kPa | 706.9
333.16 K, 8033 kPa | 706.9
333.16 K, 8049 kPa | 706.9
333.16 K, 8068 kPa | 707
333.16 K, 8410 kPa | 707.1
333.16 K, 8437 kPa | 707.2
333.16 K, 8464 kPa | 707.2
333.16 K, 8484 kPa | 707.2
333.16 K, 8592 kPa | 707.4
333.16 K, 8666 kPa | 707.4
333.16 K, 8688 kPa | 707.6
333.16 K, 8718 kPa | 707.4
333.16 K, 8769 kPa | 707.5
333.16 K, 8949 kPa | 707.7
333.16 K, 8971 kPa | 707.7
333.16 K, 9005 kPa | 707.7
333.16 K, 9029 kPa | 707.7
333.16 K, 9051 kPa | 707.7
333.16 K, 9073 kPa | 707.8
333.16 K, 9099 kPa | 707.9
333.16 K, 9121 kPa | 707.7
333.16 K, 9143 kPa | 707.9
333.16 K, 9169 kPa | 707.8
333.16 K, 9191 kPa | 707.9
333.16 K, 9214 kPa | 707.9
333.16 K, 9234 kPa | 708
333.16 K, 9254 kPa | 707.9
333.16 K, 9280 kPa | 707.9
333.16 K, 9303 kPa | 708.1
333.16 K, 9330 kPa | 708
333.16 K, 9521 kPa | 708.1
333.16 K, 9549 kPa | 708.2
333.16 K, 9737 kPa | 708.4
333.16 K, 9763 kPa | 708.4
333.16 K, 9789 kPa | 708.4
333.16 K, 9818 kPa | 708.4
333.16 K, 12216 kPa | 710.6
333.16 K, 12245 kPa | 710.6
333.16 K, 12280 kPa | 710.7
333.16 K, 12305 kPa | 710.7
333.16 K, 12351 kPa | 710.7
333.16 K, 12386 kPa | 710.7
333.16 K, 12427 kPa | 710.8
333.16 K, 12458 kPa | 710.8
333.16 K, 12492 kPa | 710.8
333.16 K, 12528 kPa | 710.8
333.16 K, 12561 kPa | 710.9
333.16 K, 12601 kPa | 711
333.16 K, 12638 kPa | 710.9
333.16 K, 12670 kPa | 711
333.16 K, 12704 kPa | 711
333.16 K, 12735 kPa | 711
333.16 K, 12766 kPa | 711
333.16 K, 12792 kPa | 711.1
333.16 K, 12824 kPa | 711.1
333.16 K, 13106 kPa | 711.4
333.16 K, 13133 kPa | 711.4
333.16 K, 13377 kPa | 711.5
333.16 K, 13399 kPa | 711.4
333.16 K, 13418 kPa | 711.7
333.16 K, 13441 kPa | 711.6
333.16 K, 13459 kPa | 711.6
333.16 K, 13476 kPa | 711.7
333.16 K, 13493 kPa | 711.7
333.16 K, 13510 kPa | 711.7
333.16 K, 13525 kPa | 711.7
333.16 K, 13537 kPa | 711.6
